Values after ≈ are worked out from the molar mass of the structure shown.
What was measured:
Assay type in all cases: functional
Staphylococcus aureus [1] = experiment: Antibacterial activity against methicillin-resistant Staphylococcus aureus LCB0002 by two fold serial dilution method
Enterococcus faecalis [2] = experiment: Antibacterial activity against vancomycin and Linezolid resistant Enterococcus faecalis LCB0007 by two fold serial dilution method
Enterococcus faecalis [3] = experiment: Antibacterial activity against Enterococcus faecalis LCB0005 by two fold serial dilution method
[4] = tested on: Staphylococcus epidermidis; experiment: Antibacterial activity against Staphylococcus epidermidis LCB0003 by two fold serial dilution method
Enterococcus faecalis [5] = experiment: Antibacterial activity against vancomycin-resistant Enterococcus faecalis LCB0006 by two fold serial dilution method
Escherichia coli [6] = experiment: Antibacterial activity against Escherichia coli LCB0012 by two fold serial dilution method
Pseudomonas aeruginosa = experiment: Antibacterial activity against Pseudomonas aeruginosa LCB0013 by two fold serial dilution method
Staphylococcus aureus [7] = experiment: Antibacterial activity against Staphylococcus aureus LCB0001 by two fold serial dilution method
Escherichia coli [8] = experiment: Antibacterial activity against Escherichia coli LCB0011 by two fold serial dilution method
Klebsiella pneumoniae = experiment: Antibacterial activity against Klebsiella pneumoniae LCB0014 by two fold serial dilution method
[9] = tested on: Staphylococcus epidermidis; experiment: Antibacterial activity against methicillin-resistant Staphylococcus epidermidis LCB0004 by two fold serial dilution method
Escherichia coli [10] = experiment: Antibacterial activity against Escherichia coli LCB0010 by two fold serial dilution method
Enterococcus faecium [11] = experiment: Antibacterial activity against vancomycin-resistant Enterococcus faecium LCB0008 by two fold serial dilution method
Moraxella catarrhalis = experiment: Antibacterial activity against Moraxella catarrhalis LCB0016 by two fold serial dilution method
Haemophilus influenzae = experiment: Antibacterial activity against Haemophilus influenzae LCB0015 by two fold serial dilution method
Enterococcus faecium [12] = experiment: Antibacterial activity against Enterococcus faecium LCB0009 by two fold serial dilution method

| Compound | MIC90 (Staphylococcus aureus [1]) [µg/mL] | MIC90 (Enterococcus faecalis [2]) [µg/mL] | MIC90 (Enterococcus faecalis [3]) [µg/mL] | MIC90 [4] [µg/mL] | MIC90 (Enterococcus faecalis [5]) [µg/mL] | MIC90 (Escherichia coli [6]) [µg/mL] | MIC90 (Pseudomonas aeruginosa) [µg/mL] | MIC90 (Staphylococcus aureus [7]) [µg/mL] | MIC90 (Escherichia coli [8]) [µg/mL] | MIC90 (Klebsiella pneumoniae) [µg/mL] | MIC90 [9] [µg/mL] | MIC90 (Escherichia coli [10]) [µg/mL] | MIC90 (Enterococcus faecium [11]) [µg/mL] | MIC90 (Moraxella catarrhalis) [µg/mL] | MIC90 (Haemophilus influenzae) [µg/mL] | MIC90 (Enterococcus faecium [12]) [µg/mL] |
| --- | --- | --- | --- | --- | --- | --- | --- | --- | --- | --- | --- | --- | --- | --- | --- | --- |
| N[C@@H]1[C@H]2CN(c3nc4c(cc3F)c(=O)c(C(=O)O)cn4-c3ccc(F)cc3F)C[C@@H]12 [TROVAFLOXACIN] | 2 (≈ 4.8 µM) | 16 (≈ 38.4 µM) | < 0.0625 | < 0.0625 | 16 (≈ 38.4 µM) | < 0.0625 | 0.5 (≈ 1.2 µM) | < 0.0625 | < 0.0625 | 0.125 (≈ 0.3 µM) | < 0.0625 | < 0.0625 | 128 (≈ 307 µM) | < 0.0625 | < 0.0625 | 32 (≈ 76.9 µM) |
| CC(=O)NC[C@H]1CN(c2ccc(N3CCOCC3)c(F)c2)C(=O)O1 [LINEZOLID] | 2 (≈ 5.93 µM) | 64 (≈ 190 µM) | 4 (≈ 11.9 µM) | 4 (≈ 11.9 µM) | 4 (≈ 11.9 µM) | 128 (≈ 379 µM) | > 128 | 2 (≈ 5.93 µM) | 16 (≈ 47.4 µM) | > 128 | 8 (≈ 23.7 µM) | > 128 | 2 (≈ 5.93 µM) | 4 (≈ 11.9 µM) | 16 (≈ 47.4 µM) | 4 (≈ 11.9 µM) |

Source: ChEMBL document CHEMBL1156319, “Synthesis, crystal and antibacterial studies of diversely functionalized tetrahydropyridin-4-ol” (2010)
